Data from patent publication US20250051347A1, “BIFUNCTIONAL CHIMERIC HETEROCYCLIC COMPOUND AND USE THEREOF AS ANDROGEN RECEPTOR DEGRADER” (Hinova Pharmaceuticals, Inc., priority 2021, published 2025).

Biological target: T1, androgen receptor (AR) splicing variant AR-v7 (Homo sapiens, UniProt P10275)
T1 construct: The degradation activity of compounds on AR-v7 in 22RV1 cells; host or cells: 22RV1 cells
T1 sequence (P10275 1-644 isoform P10275-3): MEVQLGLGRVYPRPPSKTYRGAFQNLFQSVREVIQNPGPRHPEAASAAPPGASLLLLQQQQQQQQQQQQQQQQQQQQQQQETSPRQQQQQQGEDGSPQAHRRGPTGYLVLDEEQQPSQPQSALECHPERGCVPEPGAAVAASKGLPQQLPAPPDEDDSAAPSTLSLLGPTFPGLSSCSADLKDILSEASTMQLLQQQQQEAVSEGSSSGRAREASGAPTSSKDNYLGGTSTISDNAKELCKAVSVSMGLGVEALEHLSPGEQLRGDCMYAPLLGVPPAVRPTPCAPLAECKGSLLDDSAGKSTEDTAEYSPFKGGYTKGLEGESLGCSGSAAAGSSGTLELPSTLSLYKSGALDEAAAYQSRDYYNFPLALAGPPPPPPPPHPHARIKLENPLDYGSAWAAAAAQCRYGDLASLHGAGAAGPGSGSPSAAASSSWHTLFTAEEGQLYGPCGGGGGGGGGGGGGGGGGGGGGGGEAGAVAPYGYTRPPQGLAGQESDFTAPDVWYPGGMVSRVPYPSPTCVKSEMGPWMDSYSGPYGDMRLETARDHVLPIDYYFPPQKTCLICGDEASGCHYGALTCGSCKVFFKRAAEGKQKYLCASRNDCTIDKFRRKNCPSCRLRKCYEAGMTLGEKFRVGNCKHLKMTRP
Experiment: Degradation activity on androgen receptor splicing variant AR-v7 in 22RV1 cells (ELISA)
Type: cell-based
Details: AR-v7 degradation in 22RV1 cells, 48 h

Compound	DC50 (numeric values) [nM]	DC50 (class symbols) [nM]
CC(C)(c1ccc(OCCCCCCN2CCC(CN3CCN(c4ccc5c(c4)C(=O)N(C4CCC(=O)NC4=O)C5=O)CC3)CC2)cc1)c1ccc(OCc2ccnc(NS(C)(=O)=O)n2)cc1 (stereo not drawn) [Example 6]	6330	–
Cc1nc(-c2cc(Oc3ccc(C(C)(C)c4ccc(O[C@H]5C[C@@H](Nc6ccc7c(c6)C(=O)N(C6CCC(=O)NC6=O)C7=O)C5)cc4)cc3)ccn2)no1 (stereo partly drawn) [Example 174, 2-(2,6-dioxopyridin-3-yl)-5-(((1s,3s)-3-(4-(2-(4-((2-(5-methyl-1,2,4-oxadiazol-3-yl)pyridin-4-yl)oxy)phenyl)propan-2-yl)phenoxy)cyclobutyl)amino) isoindolin-1,3-dione]	–	11 to 100
CC(C)(c1ccc(OCc2cccc(-n3cccn3)n2)cc1)c1ccc(O[C@H]2C[C@H](Nc3ccc4c(c3)C(=O)N(C3CCC(=O)NC3=O)C4=O)C2)cc1 (stereo partly drawn) [Example 253]	–	11 to 100
Cc1nnc(-c2ccc(Oc3ccc(C(C)(C)c4ccc(O[C@H]5C[C@@H](Nc6ccc7c(=O)n(C8CCC(=O)NC8=O)cnc7c6)C5)cc4)cc3)cn2)o1 (stereo partly drawn) [Example 120]	–	11 to 100
CC(C)(c1ccc(Oc2cncc(N3CC4(COC4)C3)n2)cc1)c1ccc(O[C@H]2C[C@@H](Nc3ccc4c(c3)C(=O)N(C3CCC(=O)NC3=O)C4=O)C2)cc1 (stereo partly drawn) [Example 159]	–	11 to 100
COc1cnc(Oc2ccc(C(C)(C)c3ccc(O[C@H]4C[C@H](Nc5ccc6c(c5)C(=O)N(C5CCC(=O)NC5=O)C6=O)C4)cc3)cc2)cn1 (stereo partly drawn) [Example 552, 2-(2,6-dioxopiperidin-3-yl)-5-(((1r,3r)-3-(4-(4-((5-methoxypyrazin-2-yl)oxy)phenyl)propan-2-yl)phenoxy)amino)isoindolin-1,3-dione]	–	11 to 100
CC(C)(c1ccc(OCCNC(=O)c2ccc3c(c2)C(=O)N(C2CCC(=O)NC2=O)C3=O)cc1)c1ccc(OCc2ccnc(N3CC4(COC4)C3)n2)cc1 (stereo not drawn) [Example 114, N-(2-(4-(2-(4-((2-(2-oxa-6-azaspiro[3.3]heptan-6-yl)pyrimidin-4-yl)methoxy)phenyl)propan-2-yl)phenoxy)ethyl)-2-(2,6-dioxopiperidin-3-yl)-1,3-dioxoisoindolin-5-carbonylamine]	–	1000 to 5000
CC(C)(c1ccc(Oc2nc(N3CC4(COC4)C3)ncc2F)cc1)c1ccc(O[C@H]2C[C@H](Nc3ccc4c(c3)C(=O)N(C3CCC(=O)NC3=O)C4=O)C2)cc1 (stereo partly drawn) [Example 247]	–	11 to 100
CC(C)(c1ccc(OCc2ccnc(N3CCC4(CNC4)C3)n2)cc1)c1ccc(O[C@H]2C[C@H](Nc3ccc4c(c3)C(=O)N(C3CCC(=O)NC3=O)C4=O)C2)cc1 (stereo partly drawn) [Example 83, 5-(((1r,3r)-3-(4-(2-(4-((2-(2,6-diazaspiro[3.4]octan-6-yl)pyrimidin-4-yl)methoxy)phenyl)propan-2-yl)phenoxy)cyclobutyl)amino)-2-(2,6-dioxopiperidin-3-yl)isoindolin-1,3-dione]	–	11 to 100
Cc1nc(-c2ncc(Oc3ccc(C(C)(C)c4ccc(OC5CC(Nc6cc7c(cn6)C(=O)N(C6CCC(=O)NC6=O)C7=O)C5)cc4)cc3)cn2)no1 (stereo not drawn) [Example 530, 2-(2,6-dioxopiperidin-3-yl)-6-((1r,3r)-3-(4-(2-(4-((2-(5-methyl-1,2,4-oxadiazol-3-yl)pyrimidin-5-yl)oxy)phenyl)propan-2-yl)phenoxy)cyclobutyl)amino)-1H-pyrrolo[3,4-c]pyridin-1,3(2H)-dione]	–	101 to 1000
CCC(CC)(c1ccc(OCCCCCCCCOCCCCNc2ccc3c(c2)C(=O)N(C2CCC(=O)NC2=O)C3=O)cc1)c1ccc(OCc2ccnc(NS(C)(=O)=O)n2)cc1 (stereo not drawn) [Example 57, N-(4-((4-(3-(4-((8-(4-((2-(2,6-dioxopiperidin-3-yl)-1,3-dioxoisoindolin-5-yl)amino)butoxy)octyl)oxy)phenyl)pentan-3-yl)phenoxy)methyl)pyrimidin-2-yl)methanesulfonamide]	–	101 to 1000
CC(C)(c1ccc(Oc2ccc(-n3nccn3)nc2)cc1)c1ccc(O[C@H]2C[C@@H](Nc3ccc4c(c3)C(=O)N(C3CCC(=O)NC3=O)C4=O)C2)cc1 (stereo partly drawn) [Example 540]	–	11 to 100
CC(C)(c1ccc(OCCCCOCCCCN2CCC3(CC2)CN(c2ccc4c(c2)C(=O)N(C2CCC(=O)NC2=O)C4=O)C3)cc1)c1ccc(OCc2ccnc(NS(C)(=O)=O)n2)cc1 (stereo not drawn) [Example 3]	> 10000	–
COC(=O)c1nccc(COc2ccc(C(C)(C)c3ccc(OCCCNc4ccc5c(c4)C(=O)N(C4CCC(=O)NC4=O)C5=O)cc3)cc2)n1 (stereo not drawn) [Example 184]	–	1000 to 5000
CC(C)(c1ccc(OCc2ccnc(NS(C)(=O)=O)n2)cc1)c1ccc(OC[C@H]2CC[C@H](CN3CCC(CN4CCN(c5ccc6c(c5)C(=O)N(C5CCC(=O)NC5=O)C6=O)CC4)CC3)CC2)cc1 (stereo partly drawn) [Example 43]	> 10000	–
CC(C)(c1ccc(OCCCCCCCCCN2CCN(C3CN(c4ccc5c(c4)C(=O)N(C4CCC(=O)NC4=O)C5=O)C3)CC2)cc1)c1ccc(OCc2ccnc(NS(C)(=O)=O)n2)cc1 (stereo not drawn) [Example 5, N-(4-((4-(2-(4-((9-(4-(1-(2-(2,6-dioxopiperidin-3-yl)-1,3-dioxoisoindolin-5-yl)azetidin-3-yl)piperazin-1-yl)nonyl)oxy)phenyl)propan-2-yl)phenoxy)methyl)pyrimidin-2-yl)methanesulfonamide]	> 10000	–
CC1(CNc2nccc(COc3ccc(C(C)(C)c4ccc(O[C@H]5C[C@@H](Nc6ccc7c(c6)C(=O)N(C6CCC(=O)NC6=O)C7=O)C5)cc4)cc3)n2)COC1 (stereo partly drawn) [Example 269]	–	101 to 1000
CC(=O)c1nccc(COc2ccc(C(C)(C)c3ccc(OCC4CCN(c5ccc6c(c5)C(=O)N(C5CCC(=O)NC5=O)C6=O)CC4)cc3)cc2)n1 (stereo not drawn) [Example 108, 5-(4-((4-(2-(4-((2-acetylpyrimidin-4-yl)methoxy)phenyl)propan-2-yl)phenoxy)methyl)piperidin-1-yl)-2-(2,6-dioxopiperidin-3-yl)isoindol-1,3-dione]	> 10000	–
CC(C)(c1ccc(OCCCCCCCCOCCCCNc2ccc3c(c2)C(=O)N(C2CCC(=O)NC2=O)C3=O)cc1)c1ccc(OCc2cncc(NS(C)(=O)=O)n2)cc1 (stereo not drawn) [Example 31, N-(6-((4-(2-(4-((8-(4-((2-(2,6-dioxopiperidin-3-yl)-1,3-dioxoisoindolin-5-yl)amino)butoxy)octyl)oxy)phenyl)propan-2-yl)phenoxy)methyl)pyrazin-2-yl)methanesulfonamide]	> 10000	–
CC(C)(c1ccc(CNC2CN(c3ccc4c(c3)C(=O)N(C3CCC(=O)NC3=O)C4=O)C2)cc1)c1ccc(OCc2ccnc(N3CC4(COC4)C3)n2)cc1 (stereo not drawn) [Example 509]	–	11 to 100
CC(C)(c1ccc(Oc2cnc(N3CC4(COC4)C3)cn2)cc1)c1ccc(O[C@H]2C[C@H](Nc3ccc4c(c3)C(=O)N(C3CCC(=O)NC3=O)C4=O)C2)cc1 (stereo partly drawn) [Example 573]	–	11 to 100
CC(=O)c1nccc(COc2ccc(C(C)(C)c3ccc(OCCCCCCCCCNc4cccc5c4C(=O)N(C4CCC(=O)NC4=O)C5=O)cc3)cc2)n1 (stereo not drawn) [Example 386, 4-((9-(4-(2-(4-((2-acetylpyrimidin-4-yl)methoxy)phenyl)propan-2-yl)phenoxy)nonyl)amino)-2-(2,6-dioxopyridin-3-yl)isoindol-1,3-dione]	–	1000 to 5000
Cc1nc(-c2cncc(Oc3ccc(C(C)(C)c4ccc(O[C@H]5C[C@H](Nc6ccc7c(c6)C(=O)N(C6CCC(=O)NC6=O)C7=O)C5)cc4)cc3)n2)no1 (stereo partly drawn) [Example 585]	–	11 to 100
CC(C)(c1ccc(OCCCNc2ccc3c(c2)C(=O)N(C2CCC(=O)NC2=O)C3=O)cc1)c1ccc(OCc2nc(C(N)=O)co2)cc1 (stereo not drawn) [Example 388]	–	11 to 100
